# Source: EP4603105A1, “PHARMACEUTICAL COMPOSITION CONTAINING CYCLIC COMPOUND HAVING SELECTIVE KRAS INHIBITORY EFFECT AGAINST HRAS AND NRAS” (CHUGAI SEIYAKU KABUSHIKI KAISHA, priority 2022, dated 2024)
# Tests used:
# [1] = target: GDP-bound NRAS wild-type protein (Homo sapiens, UniProt P01111); assay: Binding to NRAS by surface plasmon resonance (SPR), KD and KD ratio to KRAS
# In short: (§1)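 GDP-loaded biotinylated Avi-tag RAS proteins (E. coli-expressed) captured on a Biotin CAPture chip at ~100–300 RU; single-cycle kinetics at 30°C, 100 µL/min, 75 s injections of rising compound concentrations. HBS pH 7.4 running buffer with 1 mM DTT, 10 mM MgCl2, 10 µM GDP, 4% DMSO. KD from 1:1 binding fit.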
# [2] = target: HRAS wild-type protein (Homo sapiens, UniProt P01112); assay: Binding to HRAS by surface plasmon resonance (SPR), KD and KD ratio to KRAS
# In short: as §1
# [3] = tested on: human lung cancer strain NCI-H441; assay type: cell-based
# In short: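 Readout: […] after the ATP-based reagent. Compound: serial dilutions in dimethyl sulfoxide.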
# [4] = ratio of the KD value with respect to GDP-bound NRAS wild-type protein to the KD value with respect to KRAS
# [5] = ratio of the KD value with respect to HRAS wild-type protein to the KD value with respect to KRAS
# [6] = ratio of KD for GDP-bound NRAS wild-type protein to KD for KRAS
# [7] = ratio of KD for HRAS wild-type protein to KD for KRAS
# Chain of GDP-bound NRAS wild-type protein (P01111 whole entry): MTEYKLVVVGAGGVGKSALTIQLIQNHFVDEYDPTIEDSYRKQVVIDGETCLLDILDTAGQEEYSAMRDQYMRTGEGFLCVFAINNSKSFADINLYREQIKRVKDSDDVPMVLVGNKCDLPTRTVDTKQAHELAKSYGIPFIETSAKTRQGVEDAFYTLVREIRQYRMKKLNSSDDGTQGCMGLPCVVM
# Chain of HRAS wild-type protein (P01112 whole entry): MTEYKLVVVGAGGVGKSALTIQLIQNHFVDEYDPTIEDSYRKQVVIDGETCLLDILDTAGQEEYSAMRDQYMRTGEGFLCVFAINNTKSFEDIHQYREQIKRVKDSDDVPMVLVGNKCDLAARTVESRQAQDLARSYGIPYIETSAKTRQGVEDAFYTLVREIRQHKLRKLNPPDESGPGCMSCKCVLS
IC50 [3] [nM],SMILES,"NRAS /KRAS [1, 4]","HRAS /KRAS [2, 5]","NRAS /KRAS [1, 6]","HRAS /KRAS [2, 7]",NRAS /KRAS ([1]; ratio of KD value for GDP-bound NRAS wild-type protein to KD value for KRAS (SPR)),HRAS /KRAS ([2]; ratio of KD value for HRAS wild-type protein to KD value for KRAS (SPR))
3.2,CC[C@H](C)[C@@H]1NC(=O)[C@H](CC(C)C)N(C)C(=O)C[C@@H](C(=O)N2CCOCC2)N(C)C(=O)[C@H](C2CCCC2)N(C)C(=O)C2(CCC2)NC(=O)[C@@H]2CC(F)(F)CN2C(=O)[C@H](CCc2cc(F)c(C(F)(F)F)c(F)c2)NC(=O)CN(C)C(=O)[C@H](Cc2ccc(C(F)(F)F)cc2)N2CCCC[C@@H](C2=O)N(C)C(=O)CN(C)C1=O [PP0575],B (a compound having 3 or more and less than 10 is denoted as B),B (a compound having 3 or more and less than 10 is denoted as B),–,–,–,–
16.2,CCC[C@@H]1C[C@H]2C(=O)NC3(CCC3)C(=O)N(C)[C@@H](C3CCCC3)C(=O)N(C)[C@H](C(=O)N(C)C)CC(=O)N(C)[C@@H](CC(C)C)C(=O)N[C@@H]([C@@H](C)CC)C(=O)N(C)CC(=O)N(C)[C@H]3C/C=C\CCN(C3=O)[C@@H](Cc3ccc(C)cc3)C(=O)N(C)CC(=O)N[C@@H](CCc3cc(F)c(C(F)(F)F)c(F)c3)C(=O)N2C1 [PP2231],A (a compound having 10 or more and less than 20 is denoted as A),B (a compound having 3 or more and less than 10 is denoted as B),–,–,–,–
207,CCO[C@@H]1C[C@H]2C(=O)NC3(CCCC3)C(=O)N(C)[C@@H](C3CCCC3)C(=O)N(C)[C@H](C(=O)N(C)C)CC(=O)N(C)[C@@H](CC(C)C)C(=O)N[C@@H]([C@@H](C)CC)C(=O)N(C)CC(=O)N(C)[C@H]3CC(C)=C(C)CN(C3=O)[C@@H](Cc3ccc(C(F)(F)F)cc3)C(=O)N(C)CC(=O)N[C@@H](CCc3cc(F)c(C(F)(F)F)c(F)c3)C(=O)N2C1 [PP1045],–,–,C (A compound having a KD ratio of 0.1 or more and less than 3 is denoted as C),C (A compound having a KD ratio of 0.1 or more and less than 3 is denoted as C),–,–
1260,CC[C@H](C)[C@@H]1NC(=O)[C@H](CC(C)C)N(C)C(=O)C[C@@H](C(=O)N2CCOCC2)N(C)C(=O)[C@H](C2CCCC2)N(C)C(=O)C2(CCCC2)NC(=O)[C@@H]2CCCN2C(=O)[C@H](CCc2cc(F)c(C(F)(F)F)c(F)c2)NC(=O)CN(C)C(=O)[C@H](Cc2ccc(C(F)(F)F)cc2)N2CCCCC[C@@H](C2=O)N(C)C(=O)[C@@H]2CCCN2C1=O [PP0485],A (a compound having 10 or more and less than 20 is denoted as A),B (a compound having 3 or more and less than 10 is denoted as B),–,–,–,–
13.8,CCC[C@H]1C(=O)N[C@@H](C2CCCC2)C(=O)N(C)CC(=O)N(C)[C@H]2C/C=C\CCN(C2=O)[C@@H](Cc2ccc(C)cc2)C(=O)N(C)CC(=O)N[C@@H](CCc2ccc(C(F)(F)F)c(Cl)c2)C(=O)N2C[C@H](OCC)C[C@H]2C(=O)NC2(CC(C)(C)C2)C(=O)N(C)[C@@H](C2CCCC2)C(=O)N(C)[C@H](C(=O)N(C)C)CC(=O)N1C [PP2198],A (a compound having 10 or more and less than 20 is denoted as A),A (a compound having 10 or more and less than 20 is denoted as A),–,–,–,–
51.4,CCC[C@H]1C(=O)N[C@@H](C2CCOCC2)C(=O)N(C)CC(=O)N(C)[C@H]2C/C=C\CCN(C2=O)[C@@H](Cc2ccc(C(F)(F)F)cc2)C(=O)N(C)CC(=O)N[C@@H](CCc2ccc(C(F)(F)F)c(Cl)c2)C(=O)N2C[C@H](OCC)C[C@H]2C(=O)NC2(CC(C)(C)C2)C(=O)N(C)[C@@H](CC(C)(C)C)C(=O)N(C)[C@H](C(=O)N(C)C)CC(=O)N1C [PP3022],–,–,AA (a compound having 20 or more is denoted as AA),A (a compound having 10 or more and less than 20 is denoted as A),–,–
48.5,CC[C@H](C)[C@@H]1NC(=O)[C@H](CC(C)C)N(C)C(=O)C[C@@H](C(=O)N2CCOCC2)N(C)C(=O)[C@H](C2CCCC2)N(C)C(=O)C2(CCCC2)NC(=O)[C@@H]2CC(=O)CN2C(=O)[C@H](CCc2cc(F)c(C(F)(F)F)c(F)c2)NC(=O)CN(C)C(=O)[C@H](Cc2ccc(C(F)(F)F)cc2)N2CCCC[C@@H](C2=O)N(C)C(=O)CN(C)C1=O [PP0555],B (a compound having 3 or more and less than 10 is denoted as B),B (a compound having 3 or more and less than 10 is denoted as B),–,–,–,–
2.3,CCO[C@@H]1C[C@H]2C(=O)NC3(CC(C)(C)C3)C(=O)N(C)[C@@H](C3CCCC3)C(=O)N(C)[C@H](C(=O)N(C)C)CC(=O)N(C)[C@@H](CC3CCC3)C(=O)N[C@@H]([C@@H](C)CC)C(=O)N(C)CC(=O)N(C)[C@H]3C/C=C\CCN(C3=O)[C@@H](Cc3ccc(C(F)(F)F)cc3)C(=O)N(C)CC(=O)N[C@@H](CCc3cc(F)c(C(F)(F)F)c(F)c3)C(=O)N2C1 [PP1651],–,–,–,–,A (a compound having 10 or more and less than 20 is denoted as A),B (a compound having 3 or more and less than 10 is denoted as B)
7.6,CCO[C@@H]1C[C@H]2C(=O)NC3(CC(C)(C)C3)C(=O)N(C)[C@@H](C3CCCC3)C(=O)N(C)[C@H](C(=O)N(C)CC)CC(=O)N(C)[C@@H](CC)C(=O)N[C@@H]([C@@H](C)CC)C(=O)N(C)CC(=O)N(C)[C@H]3C/C=C\CCN(C3=O)[C@@H](Cc3ccc(C(F)(F)F)cc3)C(=O)N(C)CC(=O)N[C@@H](CCc3ccc(C(F)(F)F)c(Cl)c3)C(=O)N2C1 [PP2823],–,–,A (a compound having 10 or more and less than 20 is denoted as A),A (a compound having 10 or more and less than 20 is denoted as A),–,–
13.9,CCO[C@@H]1C[C@H]2C(=O)NC3(CCC3)C(=O)N(C)[C@@H](C3CCCC3)C(=O)N(C)[C@H](C(=O)N(C)C)CC(=O)N(C)[C@@H](COC)C(=O)N[C@@H]([C@@H](C)CC)C(=O)N(C)CC(=O)N(C)[C@H]3CCCCCN(C3=O)[C@@H](Cc3ccc(C(F)(F)F)cc3)C(=O)N(C)CC(=O)N[C@@H](CCc3cc(F)c(C(F)(F)F)c(F)c3)C(=O)N2C1 [PP0674],B (a compound having 3 or more and less than 10 is denoted as B),B (a compound having 3 or more and less than 10 is denoted as B),–,–,–,–
9.7,CCC[C@H]1C(=O)N[C@@H]([C@@H](C)CC)C(=O)N2CC[C@H]2C(=O)N(C)[C@H]2C/C=C\CCN(C2=O)[C@@H](Cc2ccc(C(F)(F)F)cc2)C(=O)N(C)CC(=O)N[C@@H](CCc2cc(F)c(C(F)(F)F)c(F)c2)C(=O)N2C[C@H](OCC)C[C@H]2C(=O)NC2(CC(C)(C)C2)C(=O)N(C)[C@@H](C2CCCC2)C(=O)N(C)[C@H](C(=O)N(C)C)CC(=O)N1C [PP1925],A (a compound having 10 or more and less than 20 is denoted as A),A (a compound having 10 or more and less than 20 is denoted as A),–,–,–,–
19.5,CCO[C@@H]1C[C@H]2C(=O)NC3(CC(C)(C)C3)C(=O)N(C)[C@@H](C(CC)CC)C(=O)N(C)[C@H](C(=O)N3CCCC3)CC(=O)N(C)[C@@H](COC)C(=O)N[C@@H]([C@@H](C)CC)C(=O)N(C)CC(=O)N(C)[C@H]3C/C=C\CCN(C3=O)[C@@H](Cc3ccc(C(F)(F)F)cc3)C(=O)N(C)CC(=O)N[C@@H](CCc3ccc(C(F)(F)F)c(OC)c3)C(=O)N2C1 [PP2159],AA (a compound having 20 or more is denoted as AA),A (a compound having 10 or more and less than 20 is denoted as A),–,–,–,–
